The values that follow come from patent US20080234241A1, “MELANOGENESIS INHIBITORS AND WHITENING AGENTS COMPRISING ERGOSTEROL DERIVATIVE AND COMPOSITIONS CONTAINING ERGOSTEROL DERIVATIVE” (Sakamoto Bio Co., Ltd., priority 2000, published 2008).

Assay [1] concerns B 16 IOF7 melanoma cells. As to the kind of experiment: Melanogenesis inhibitory effect in B16 melanoma cells. In kind it is cell-based, mouse. The conditions noted are these: for Minimum concentration for inhibition of melanogenesis: B16 cells cultivated 72 hours at 37° C., melanin from absorbance at 470 nm against methanol-treated control as 100%. As for the experimental part:
Melanogenesis inhibitory activity was evaluated using B 16 IOF7 melanoma cells (obtained from the Akita Research Institute of Food and Brewing, Japan), which are melanogenic cells of mouse cells, by application to the cells of an isolated form of Formula (1) described above in a solution diluted with the couture medium, thereby observing the production of melanin. The B16 cells, cultivated to a 70% confluent level in a flask, were washed with PBS and then were treated with a trypsin solution to isolate the cells. The same volume of a serum-containing culture medium (E-MEM, 10% FBS) as that of the trypsin was added to the flask, followed by collecting the cells and centrifuging (800 rpm, 5 min.). After this phase of the process, the number of cells was counted and adjusted to approximately 10^4 cells/ml in the culture medium (E-MEM, 10% FBS). A diluted solution of Formula (1) was prepared by placing 20 μL of sterile PBS on a cell culturing plate (a type for adherent cells) along with 20 μL of a Formula (1) solution, thereby doubling dilution (a final concentration in the culture medium from 100 μg/mL to […]). The control arbutin (a final concentration in the culture medium from 140 μg/mL to 0.22 μg/mL) in methanol was similarly diluted.
Then 80 μL of the cell suspension was added to the diluted sample solution (20 μL) on the plate, and the mixture was cultivated in a CO2 incubator at 37° C. for 72 hours. Melanogenesis in the cells was observed under a microscope. In cases where melanogenesis was confirmed microscopically, the culture medium was removed, and the cell layer was treated with 300 μL of 1N NaOH to dissolve the melanin, where the concentration of the melanin formed was determined from measurement of absorbance at 470 nm. The levels of Formula (1) and arbutin used were varied to determine their minimum concentrations needed for inhibiting melanogenesis, against the value of the methanol-treated control as 100%.

Assay [2] relates to pigment deposition on brachial skin. As to the kind of experiment: Measurement of whitening effect: lotion applied to brachial skin after exposure to sun light. In kind it is in vivo, men. The conditions noted are these: for Decision (whitening effect): lotion, group of 20 men, applied twice everyday for 5 weeks starting five days after sun exposure; for Whitening effect of lotions, result in words: lotions of Table 2, 20 men, 5 weeks. As for the experimental part:
Preparation the Alcohol and Water Phases are Prepared, Mixed, and Dissolved
A test group made up of 20 men was exposed to sun light in summer for four hours per day from […]. for 2 days. Five days after the exposure to the sun light, the lotion described above was applied to the group on the brachial skin twice everyday, once each in the morning and in the evening for 5 weeks.

Take `OC[C@H]1O[C@@H](Oc2ccc(O)cc2)[C@H](O)[C@@H](O)[C@@H]1O` [Arbutin, arbutin, reference compound]: the “Minimum concentration for inhibition of melanogenesis” value in assay [1] stood at 0.88 µg/mL.

As to `CC(C)[C@@H](C)/C=C/[C@@H](C)[C@H]1CC[C@@H]2[C@]1(C)CCC1[C@]23C=C[C@]2(C[C@@H](O)CC[C@]12C)OO3` (stereo partly drawn) [Formula (1), 5α,8α-epidioxy-(22E,24R)-orgosta-6,22-dien-3β-ol], the “Microscopic observation of melanogenesis in B16 cells” value in assay [1] (72 hours culture, compared with arbutin) is recorded as “inhibited more extensively by Formula (1) than by arbutin”. Also, the “Minimum concentration for inhibition of melanogenesis” value in assay [1] amounted to 0.045 µg/mL. The “Decision (whitening effect)” value is “B (11 to 15 out of the group rated “Effective” or “More effective”)” in assay [2] (content 0.2 % w/w) and “A (16 or more out of the group rated “Effective” or “More effective”)” in assay [2] (content 1.0 % w/w). In assay [2], the “Whitening effect of lotions, result in words” value is “prevented pigment deposition and gave a whitening effect”.

As for `Oc1ccc(O)cc1` [hydroquinone, reference compound], the “Decision (whitening effect)” value in assay [2] (content 1.0 % w/w) was “C (6 to 10 out of the group rated “Effective” or “More effective”)”. Besides, in assay [2], the “Whitening effect of lotions, result in words” value is “nor Comparative example 2 (hydroquinone) was effective”.
